Reference: PubChem BioAssay (NCI)
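Each compound was tested at five concentrations against cells in 96-well plates for 48 hours. TGI denotes the concentration required for complete inhibition of growth.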

Legend:
Assay in all cases: NCI tumour cell line growth inhibition, 48 h
[1] = test system: A498 renal
[2] = test system: A549 NSCLC
[3] = test system: CCRF-CEM leukemia
[4] = test system: COLO 205 colon
[5] = test system: DMS 114 small cell lung
[6] = test system: EKVX NSCLC
[7] = test system: HCC-2998 colon
[8] = test system: HCT-116 colon
[9] = test system: HCT-15 colon
[10] = test system: HOP-18 NSCLC
[11] = test system: HOP-62 NSCLC
[12] = test system: HT29 colon
[13] = test system: IGROV1 ovarian
[14] = test system: K-562 leukemia
[15] = test system: KM20L2 colon
[16] = test system: M19-MEL melanoma
[17] = test system: MCF7 breast
[18] = test system: MOLT-4 leukemia
[19] = test system: NCI-H226 lung
[20] = test system: NCI-H23 lung
[21] = test system: NCI-H460 lung
[22] = test system: NCI-H522 lung
[23] = test system: NCI/ADR-RES ovarian
[24] = test system: OVCAR-3 ovarian
[25] = test system: OVCAR-4 ovarian
[26] = test system: OVCAR-5 ovarian
[27] = test system: OVCAR-8 ovarian
[28] = test system: P388 leukemia
[29] = test system: RPMI-8226 leukemia
[30] = test system: RXF 393 renal
[31] = test system: SF-268 CNS
[32] = test system: SF-295 CNS
[33] = test system: SF-539 CNS
[34] = test system: SK-MEL-28 melanoma
[35] = test system: SK-MEL-5 melanoma
[36] = test system: SN12C renal
[37] = test system: SN12K1 renal
[38] = test system: SNB-19 CNS
[39] = test system: SNB-75 CNS
[40] = test system: SNB-78 CNS
[41] = test system: U251 CNS
[42] = test system: UACC-257 melanoma
[43] = test system: UACC-62 melanoma
[44] = test system: UO-31 renal
[45] = test system: XF 498 CNS
[46] = test system: CAKI-1 renal
[47] = test system: DLD-1 colon
[48] = test system: DMS 273 small cell lung
[49] = test system: HL-60(TB) leukemia
[50] = test system: HOP-92 NSCLC
[51] = test system: KM12 colon
[52] = test system: LOX IMVI melanoma
[53] = test system: MALME-3M melanoma
[54] = test system: P388/ADR leukemia
[55] = test system: SK-MEL-2 melanoma
[56] = test system: SK-OV-3 ovarian
[57] = test system: SW-620 colon
[58] = test system: 786-0 renal
[59] = test system: ACHN renal
[60] = test system: LXFL 529 NSCLC
[61] = test system: M14 melanoma
[62] = test system: RXF-631 renal
[63] = test system: SR leukemia
[64] = test system: TK-10 renal

C=C1CC(OC)(C(O)C(=O)N[C@H]2OCO[C@H]3C2O[C@H](C[C@H](O)COC)C(C)(C)C3OC)O[C@H](C)[C@@H]1C (some centres undefined)
TGI [1]: > 0.00772 µM
TGI [2]: > 0.00772 µM
TGI [3]: > 0.00772 µM
TGI [4]: > 0.00772 µM
TGI [5]: > 0.00772 µM
TGI [6]: > 0.00772 µM
TGI [7]: > 0.00772 µM
TGI [8]: > 0.00772 µM
TGI [9]: > 0.00772 µM
TGI [10]: > 0.00772 µM
TGI [11]: > 0.00772 µM
TGI [12]: > 0.00772 µM
TGI [13]: > 0.00772 µM
TGI [14]: > 0.00772 µM
TGI [15]: > 0.00772 µM
TGI [16]: > 0.00772 µM
TGI [17]: > 0.00772 µM
TGI [18]: > 0.00772 µM
TGI [19]: > 0.00772 µM
TGI [20]: > 0.00772 µM
TGI [21]: > 0.00772 µM
TGI [22]: > 0.00772 µM
TGI [23]: > 0.00772 µM
TGI [24]: > 0.00772 µM
TGI [25]: > 0.00772 µM
TGI [26]: > 0.00772 µM
TGI [27]: > 0.00772 µM
TGI [28]: > 0.00772 µM
TGI [29]: > 0.00772 µM
TGI [30]: > 0.00772 µM
TGI [31]: > 0.00772 µM
TGI [32]: > 0.00772 µM
TGI [33]: > 0.00772 µM
TGI [34]: > 0.00772 µM
TGI [35]: > 0.00772 µM
TGI [36]: > 0.00772 µM
TGI [37]: > 0.00772 µM
TGI [38]: > 0.00772 µM
TGI [39]: > 0.00772 µM
TGI [40]: > 0.00772 µM
TGI [41]: > 0.00772 µM
TGI [42]: > 0.00772 µM
TGI [43]: > 0.00772 µM
TGI [44]: > 0.00772 µM
TGI [45]: > 0.00772 µM

CC(=O)[C@H]1CCC2[C@@H]3CC=C4C(O)C(OS(=O)(=O)O)CC[C@]4(C)C3CC[C@@]21C (some centres undefined)
TGI [1]: > 100 µM
TGI [2]: > 100 µM
TGI [46]: > 100 µM
TGI [3]: > 100 µM
TGI [4]: > 100 µM
TGI [47]: > 100 µM
TGI [5]: > 100 µM
TGI [48]: > 100 µM
TGI [6]: > 100 µM
TGI [7]: > 100 µM
TGI [8]: > 100 µM
TGI [9]: > 100 µM
TGI [49]: > 31.6 µM
TGI [10]: > 100 µM
TGI [11]: > 100 µM
TGI [50]: > 100 µM
TGI [12]: > 100 µM
TGI [13]: > 100 µM
TGI [14]: > 100 µM
TGI [51]: > 100 µM
TGI [15]: > 100 µM
TGI [52]: > 100 µM
TGI [16]: > 100 µM
TGI [53]: > 100 µM
TGI [17]: > 100 µM
TGI [18]: > 100 µM
TGI [19]: > 100 µM
TGI [20]: > 100 µM
TGI [21]: > 100 µM
TGI [22]: > 100 µM
TGI [23]: > 100 µM
TGI [24]: > 100 µM
TGI [25]: > 100 µM
TGI [26]: > 100 µM
TGI [27]: > 100 µM
TGI [28]: > 100 µM
TGI [54]: > 100 µM
TGI [29]: > 100 µM
TGI [30]: > 100 µM
TGI [31]: > 100 µM
TGI [32]: > 100 µM
TGI [33]: > 100 µM
TGI [55]: > 100 µM
TGI [34]: > 100 µM
TGI [35]: > 100 µM
TGI [56]: > 100 µM
TGI [36]: > 100 µM
TGI [37]: > 100 µM
TGI [38]: > 100 µM
TGI [39]: > 100 µM
TGI [40]: > 100 µM
TGI [57]: > 100 µM
TGI [41]: > 100 µM
TGI [42]: > 100 µM
TGI [43]: > 100 µM
TGI [44]: > 100 µM

COC(=O)/C(=N/O)C(C(=O)OC)C(=O)C(=O)Nc1c(Cl)cc(C)cc1S(=O)(=O)O (centres undefined)
TGI [58]: > 100 µM
TGI [1]: > 100 µM
TGI [2]: > 100 µM
TGI [59]: > 100 µM
TGI [46]: > 100 µM
TGI [3]: > 100 µM
TGI [4]: > 100 µM
TGI [47]: > 100 µM
TGI [5]: > 100 µM
TGI [48]: 33.2 µM
TGI [6]: > 100 µM
TGI [7]: > 100 µM
TGI [8]: > 100 µM
TGI [9]: > 100 µM
TGI [49]: > 100 µM
TGI [10]: > 100 µM
TGI [11]: > 100 µM
TGI [50]: > 100 µM
TGI [12]: > 100 µM
TGI [13]: > 100 µM
TGI [14]: > 100 µM
TGI [51]: > 100 µM
TGI [15]: > 100 µM
TGI [52]: > 100 µM
TGI [60]: > 100 µM
TGI [61]: > 100 µM
TGI [16]: > 100 µM
TGI [53]: > 100 µM
TGI [18]: > 100 µM
TGI [19]: > 100 µM
TGI [20]: > 100 µM
TGI [21]: > 100 µM
TGI [22]: > 100 µM
TGI [24]: > 100 µM
TGI [25]: > 100 µM
TGI [26]: > 100 µM
TGI [27]: > 100 µM
TGI [29]: 53.3 µM
TGI [30]: > 100 µM
TGI [62]: > 100 µM
TGI [31]: > 100 µM
TGI [32]: > 100 µM
TGI [33]: > 100 µM
TGI [55]: > 100 µM
TGI [34]: > 100 µM
TGI [35]: > 100 µM
TGI [56]: > 100 µM
TGI [36]: > 100 µM
TGI [38]: > 100 µM
TGI [39]: > 100 µM
TGI [40]: > 100 µM
TGI [63]: 42.8 µM
TGI [64]: > 100 µM
TGI [41]: > 100 µM
TGI [42]: > 100 µM
TGI [43]: > 100 µM
TGI [44]: > 100 µM
TGI [45]: > 100 µM
